# According to patent US6424857B1, “Use of acousto-optical and sonoluminescene contrast agents” (Amersham Health AS, priority 1997, dated 2002):
# Test: Solubility in water and sesame oil
smiles,measurement,setting,value
Oc1ccc2ccccc2c1N=Nc1ccc(N=Nc2ccccc2)cc1 [Sudan III],solubility in sesame oil,sesame oil,soluble
same,solubility in water,water,very water insoluble
